From patent US10004701B2, “Methods and compositions for treating infection” (UNIVERSITY OF ROCHESTER, priority 2012, dated 2018)
Counter-ions that a name gives are not always drawn. Like-named read-outs stand apart in the source and are kept apart here.

Key:
Assay in all cases: AK assay 384-well format, Prestwick library screening
E. faecium = format: cell-based, Enterococcus faecium; details: Enterococcus faecium, 3 h, 50 μM final drug concentration
E. cloacae = format: cell-based, Enterobacter cloacae; details: Enterobacter cloacae, 3 h, 50 μM final drug concentration
[1] = test system: S. aureus strain USA300-0114; format: cell-based, Staphylococcus aureus; details: Staphylococcus aureus, USA300, 3 h, 50 μM final drug concentration
K. pneumoniae = format: cell-based, Klebsiella pneumoniae; details: Klebsiella pneumoniae, 3 h, 50 μM final drug concentration
P. aeruginosa = format: cell-based, Pseudomonas aeruginosa; details: Pseudomonas aeruginosa, 3 h, 50 μM final drug concentration
[2] = test system: A. baumannii strain 98-37-09; format: cell-based, Acinetobacter baumannii; details: Acinetobacter baumannii, 983709, 3 h, 50 μM final drug concentration
E. coli = format: cell-based, Escherichia coli; details: Escherichia coli, 3 h, 50 μM final drug concentration
[3] = 384-well format, cutoff for positive-scoring molecules 3-fold increase, read-out: AK-based Prestwick Library Screening Results, E. faecium (increase in extracellular AK activity)
[4] = 384-well format, cutoff for positive-scoring molecules 3-fold increase, read-out: AK-based Prestwick Library Screening Results, E. cloacae (increase in extracellular AK activity)
[5] = 384-well format, cutoff for positive-scoring molecules 3-fold increase, read-out: AK-based Prestwick Library Screening Results, S. aureus (increase in extracellular AK activity)
[6] = 384-well format, cutoff for positive-scoring molecules 3-fold increase, read-out: AK-based Prestwick Library Screening Results, K. pneumoniae (increase in extracellular AK activity)
[7] = 384-well format, cutoff for positive-scoring molecules 3-fold increase, read-out: AK-based Prestwick Library Screening Results, P. aeruginosa (increase in extracellular AK activity)
[8] = 384-well format, cutoff for positive-scoring molecules 3-fold increase, read-out: AK-based Prestwick Library Screening Results, A. baumannii (increase in extracellular AK activity)
[9] = 384-well format, cutoff for positive-scoring molecules 3-fold increase, read-out: AK-based Prestwick Library Screening Results, E. coli (increase in extracellular AK activity)

## COc1cccc2c1C(=O)c1c(O)c3c(c(O)c1C2=O)C[C@@](O)(C(C)=O)C[C@@H]3O[C@H]1C[C@H](N)[C@H](O)[C@H](C)O1 [Daunorubicin hydrochloride]
E. faecium; planktonic E. faecium, […], read-out: AK-based Prestwick Library Screening Results, E. faecium (increase in extracellular AK activity)
  fold induction at 50 µM: 2.3
E. cloacae; planktonic E. cloacae, […], read-out: AK-based Prestwick Library Screening Results, E. cloacae (increase in extracellular AK activity)
  fold induction at 50 µM: 0.6
[1]; planktonic S. aureus, […], read-out: AK-based Prestwick Library Screening Results, S. aureus (increase in extracellular AK activity)
  fold induction at 50 µM: 2.1
K. pneumoniae; planktonic K. pneumoniae, […], read-out: AK-based Prestwick Library Screening Results, K. pneumoniae (increase in extracellular AK activity)
  fold induction at 50 µM: 0.5
P. aeruginosa; planktonic P. aeruginosa, […], read-out: AK-based Prestwick Library Screening Results, P. aeruginosa (increase in extracellular AK activity)
  fold induction at 50 µM: 0.5
[2]; planktonic A. baumannii, […], read-out: AK-based Prestwick Library Screening Results, A. baumannii (increase in extracellular AK activity)
  fold induction at 50 µM: 0.6
E. coli; planktonic E. coli, […], read-out: AK-based Prestwick Library Screening Results, E. coli (increase in extracellular AK activity)
  fold induction at 50 µM: 0.9

## CN1CCN(CC(=O)N2c3ccccc3C(=O)Nc3cccnc32)CC1 [Pirenzepine dihydrochloride]
E. faecium; [3]
  fold induction at 50 µM: 1.1
E. cloacae; [4]
  fold induction at 50 µM: 1.4
[1]; [5]
  fold induction at 50 µM: 1
K. pneumoniae; [6]
  fold induction at 50 µM: 1
P. aeruginosa; [7]
  fold induction at 50 µM: 1
[2]; [8]
  fold induction at 50 µM: 1.1
E. coli; [9]
  fold induction at 50 µM: 1.4

## COc1ccc(OC)c(C(O)C(C)N)c1 (centres unmarked) [Methoxamine hydrochloride]
E. faecium; planktonic, cutoff for positive 3-fold increase, read-out: AK-based Prestwick Library Screening Results, E. faecium (fold increase in extracellular AK activity)
  fold induction at 50 µM: 1
E. cloacae; planktonic, cutoff for positive 3-fold increase, read-out: AK-based Prestwick Library Screening Results, E. cloacae (fold increase in extracellular AK activity)
  fold induction at 50 µM: 1.4
[1]; planktonic, cutoff for positive 3-fold increase, read-out: AK-based Prestwick Library Screening Results, S. aureus (fold increase in extracellular AK activity)
  fold induction at 50 µM: 0.9
K. pneumoniae; planktonic, cutoff for positive 3-fold increase, read-out: AK-based Prestwick Library Screening Results, K. pneumoniae (fold increase in extracellular AK activity)
  fold induction at 50 µM: 1
P. aeruginosa; planktonic, cutoff for positive 3-fold increase, read-out: AK-based Prestwick Library Screening Results, P. aeruginosa (fold increase in extracellular AK activity)
  fold induction at 50 µM: 1.2
[2]; planktonic, cutoff for positive 3-fold increase, read-out: AK-based Prestwick Library Screening Results, A. baumannii (fold increase in extracellular AK activity)
  fold induction at 50 µM: 1
E. coli; planktonic, cutoff for positive 3-fold increase, read-out: AK-based Prestwick Library Screening Results, E. coli (fold increase in extracellular AK activity)
  fold induction at 50 µM: 1.1

## C=C(C)[C@@H]1[C@H]2OC(=O)[C@@H]1[C@]1(O)C[C@H]3O[C@]34C(=O)O[C@H]2[C@]14C [Picrotoxinin]
E. faecium; planktonic, […], read-out: AK-based Prestwick Library Screening Results, E. faecium (fold increase in extracellular AK activity)
  fold induction at 50 µM: 1
E. cloacae; planktonic, […], read-out: AK-based Prestwick Library Screening Results, E. cloacae (fold increase in extracellular AK activity)
  fold induction at 50 µM: 0.7
[1]; planktonic, […], read-out: AK-based Prestwick Library Screening Results, S. aureus (fold increase in extracellular AK activity)
  fold induction at 50 µM: 0.6
K. pneumoniae; planktonic, […], read-out: AK-based Prestwick Library Screening Results, K. pneumoniae (fold increase in extracellular AK activity)
  fold induction at 50 µM: 0.6
P. aeruginosa; planktonic, […], read-out: AK-based Prestwick Library Screening Results, P. aeruginosa (fold increase in extracellular AK activity)
  fold induction at 50 µM: 0.6
[2]; planktonic, […], read-out: AK-based Prestwick Library Screening Results, A. baumannii (fold increase in extracellular AK activity)
  fold induction at 50 µM: 0.7
E. coli; planktonic, […], read-out: AK-based Prestwick Library Screening Results, E. coli (fold increase in extracellular AK activity)
  fold induction at 50 µM: 0.6

## CCc1c(C)[nH]c2c1C(=O)C(CN1CCOCC1)CC2 (centres unmarked) [Molindone hydrochloride]
E. faecium; planktonic E. faecium, positive cutoff 3-fold increase, read-out: AK-based Prestwick library screening result, E. faecium (fold increase in extracellular AK activity)
  fold induction at 50 µM: 1
E. cloacae; planktonic E. cloacae, positive cutoff 3-fold increase, read-out: AK-based Prestwick library screening result, E. cloacae (fold increase in extracellular AK activity)
  fold induction at 50 µM: 1.7
[1]; planktonic S. aureus, positive cutoff 3-fold increase, read-out: AK-based Prestwick library screening result, S. aureus (fold increase in extracellular AK activity)
  fold induction at 50 µM: 1.1
K. pneumoniae; planktonic K. pneumoniae, positive cutoff 3-fold increase, read-out: AK-based Prestwick library screening result, K. pneumoniae (fold increase in extracellular AK activity)
  fold induction at 50 µM: 1
P. aeruginosa; planktonic P. aeruginosa, positive cutoff 3-fold increase, read-out: AK-based Prestwick library screening result, P. aeruginosa (fold increase in extracellular AK activity)
  fold induction at 50 µM: 0.9
[2]; planktonic A. baumannii, positive cutoff 3-fold increase, read-out: AK-based Prestwick library screening result, A. baumannii (fold increase in extracellular AK activity)
  fold induction at 50 µM: 1.1
E. coli; planktonic E. coli, positive cutoff 3-fold increase, read-out: AK-based Prestwick library screening result, E. coli (fold increase in extracellular AK activity)
  fold induction at 50 µM: 1.1

## CC(N/C(=N\C#N)Nc1ccncc1)C(C)(C)C (centres unmarked) [Pinacidil]
E. faecium; [3]
  fold induction at 50 µM: 0.9
E. cloacae; [4]
  fold induction at 50 µM: 0.6
[1]; [5]
  fold induction at 50 µM: 0.5
K. pneumoniae; [6]
  fold induction at 50 µM: 0.5
P. aeruginosa; [7]
  fold induction at 50 µM: 0.5
[2]; [8]
  fold induction at 50 µM: 0.5
E. coli; [9]
  fold induction at 50 µM: 0.5

## NC(=O)N1c2ccccc2C=Cc2ccccc21 [Carbamazepine]
E. faecium; planktonic E. faecium, 384-well, cutoff for positive-scoring molecules 3-fold increase, read-out: AK-based Prestwick Library Screening Results: E. faecium (increase in extracellular AK activity)
  fold induction at 50 µM: 0.8
E. cloacae; planktonic E. cloacae, 384-well, cutoff for positive-scoring molecules 3-fold increase, read-out: AK-based Prestwick Library Screening Results: E. cloacae (increase in extracellular AK activity)
  fold induction at 50 µM: 1.5
[1]; planktonic S. aureus, 384-well, cutoff for positive-scoring molecules 3-fold increase, read-out: AK-based Prestwick Library Screening Results: S. aureus (increase in extracellular AK activity)
  fold induction at 50 µM: 1
K. pneumoniae; planktonic K. pneumoniae, 384-well, cutoff for positive-scoring molecules 3-fold increase, read-out: AK-based Prestwick Library Screening Results: K. pneumoniae (increase in extracellular AK activity)
  fold induction at 50 µM: 0.9
P. aeruginosa; planktonic P. aeruginosa, 384-well, cutoff for positive-scoring molecules 3-fold increase, read-out: AK-based Prestwick Library Screening Results: P. aeruginosa (increase in extracellular AK activity)
  fold induction at 50 µM: 1
[2]; planktonic A. baumannii, 384-well, cutoff for positive-scoring molecules 3-fold increase, read-out: AK-based Prestwick Library Screening Results: A. baumannii (increase in extracellular AK activity)
  fold induction at 50 µM: 0.9
E. coli; planktonic E. coli, 384-well, cutoff for positive-scoring molecules 3-fold increase, read-out: AK-based Prestwick Library Screening Results: E. coli (increase in extracellular AK activity)
  fold induction at 50 µM: 1

## Cc1ccc(C(=O)c2ccc(CC(=O)O)n2C)cc1 [Tolmetin sodium salt dihydrate]
E. faecium; cutoff for positive-scoring molecules 3-fold increase, read-out: AK-based Prestwick Library Screening Results, E. faecium (fold increase in extracellular AK activity)
  fold induction at 50 µM: 0.8
E. cloacae; cutoff for positive-scoring molecules 3-fold increase, read-out: AK-based Prestwick Library Screening Results, E. cloacae (fold increase in extracellular AK activity)
  fold induction at 50 µM: 2
[1]; cutoff for positive-scoring molecules 3-fold increase, read-out: AK-based Prestwick Library Screening Results, S. aureus (fold increase in extracellular AK activity)
  fold induction at 50 µM: 0.9
K. pneumoniae; cutoff for positive-scoring molecules 3-fold increase, read-out: AK-based Prestwick Library Screening Results, K. pneumoniae (fold increase in extracellular AK activity)
  fold induction at 50 µM: 0.6
P. aeruginosa; cutoff for positive-scoring molecules 3-fold increase, read-out: AK-based Prestwick Library Screening Results, P. aeruginosa (fold increase in extracellular AK activity)
  fold induction at 50 µM: 1
[2]; cutoff for positive-scoring molecules 3-fold increase, read-out: AK-based Prestwick Library Screening Results, A. baumannii (fold increase in extracellular AK activity)
  fold induction at 50 µM: 0.8
E. coli; cutoff for positive-scoring molecules 3-fold increase, read-out: AK-based Prestwick Library Screening Results, E. coli (fold increase in extracellular AK activity)
  fold induction at 50 µM: 0.9
